Counter-ions that a name gives are not always drawn.
Target: T1, human MCH1R receptor (Homo sapiens, UniProt Q99705)
T1 construct: host or cells: CHO-K1
Assay: Binding assay: [125I]-MCH displacement by SPA on CHO-K1 hMCHR1 membranes
Conditions: calculated from IC50 using the Cheng Prushoff equation; 0.2 nM [125I]-MCH; CHO-K1 hMCHRI membranes
Procedure: The compounds according to the invention were evaluated for their binding to the human MCH1R receptor by the following method:
Compounds. MCH peptide was purchased from Phoenix pharmaceuticals. (Phe^13, [^125I]Tyr^19 Melanine-Concentrating Hormone (human, mouse, rat) ([^125I]-MCH) was obtained from NEN life Science Products. Inc. Boston, Mass. Wheat germ agglutinine SPA beads (RPNQ 0001) were obtained from Amersham-Pharmacia Biotech. All other reagents used are of highest purity from different resources available. Protein Kits, Micro BCA™ Protein Assay Reagent Kit (Cat No. 23235) were purchased from Piece, Rockford, Ill., USA. […]
The radio labeled [^125I]-MCH was diluted with cold MCH in ratio 1:3. […] The results were calculated using Excel program and the curves were drawn using a program GraphPad Prism.
For screening of the substances the amount of the beads used was 0.25 mg/well and the amount of the membrane protein was 4 μg/well. […] The samples were counted using Microbeta counter (Wallac Trilux 1450 Micro beta counter, Wallac, Finland) for 2 minutes and the results were calculated by using the computer program Activity Base.
The Ki value is calculated from IC50 using the Cheng Prushoff equation: Ki=IC50(1+[S]/Km) [Cheng, Y. C.; Prushoff, W. H. Biochem. Pharmacol. 1973, 22, 3099-3108].

T1 sequence (Q99705 whole entry): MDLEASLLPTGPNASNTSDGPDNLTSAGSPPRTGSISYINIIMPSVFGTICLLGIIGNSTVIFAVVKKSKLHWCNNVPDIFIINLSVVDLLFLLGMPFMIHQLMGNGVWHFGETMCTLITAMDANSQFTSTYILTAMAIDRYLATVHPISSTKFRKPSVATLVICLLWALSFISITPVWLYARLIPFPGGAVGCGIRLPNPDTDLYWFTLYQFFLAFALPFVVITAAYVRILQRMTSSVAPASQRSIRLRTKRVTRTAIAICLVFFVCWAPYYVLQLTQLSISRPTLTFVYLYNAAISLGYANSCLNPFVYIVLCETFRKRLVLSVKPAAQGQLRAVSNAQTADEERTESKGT

Ki [nM] | SMILES
288 | COc1ccc([C@@]23CC[C@@H](NC(=O)c4ccc(C(F)(F)F)cc4F)C[C@@H]2CN(C)C3)cc1OC (relative stereo) [Example 44, N-[(3aS*,5R*,7aR*)-7a-(3,4-Dimethoxyphenyl)-2-methyloctahydro-1H-isoindol-5-yl]-2-fluoro-4-(trifluoromethyl)benzamide trifluoroacetate]
74 | COc1ccc([C@@]23CC[C@@H](NC(=O)Nc4cc(C)cc(C)c4)C[C@@H]2CN(C)C3)cc1OC (relative stereo) [Example 48, N-[(3 aS*,5R*,7aR*)-7a-(3,4-Dimethoxyphenyl)-2-methyloctahydro-1H-isoindol-5-yl]-N′-(3,5-dimethylphenyl)urea trifluoroacetate]
